# Laboratory results taken from patent publication US20010049373A1, “Materials and methods for killing nematodes and nematode eggs” (priority 2000, published 2001).
# Columns and labels:
# Caenorhabditis elegans [1] = assay: HTS runs (initial and follow-up): mOD, % Run and visual score (Table 3); type: in vivo; parameters: key to Initial HTS Run Visual Score / Follow-up HTS Run Visual Score: Dead: only stiff L1s (no movement); Dead (L4): worms are dead, but at a later larval stage; majority of worms are L1 (based on size); majority of worms are L2 (based on size); majority of worms are L3 (based on size); majority of worms are L4 (based on size); AD: majority of worms are adult; #AD: 5 adult worms or less; B!: sterile (0-25 progeny); B: low broodsize (25-100 progeny); ˜B: moderate broodsize (100-250 progeny); <: reduced broodsize (250-500 progeny); OK: no effect (˜1000+ progeny)
# Experimental: (§1) The nematicidal activity of anthelmintic Compositions 48-118 were determined in accordance with the procedure outlined in Example 2.
# Caenorhabditis elegans [2] = assay: C. elegans L1 larvae dose-response, 5 day visual viability score (Examples 2 and 7); type: in vivo; parameters: key: Dead: only stiff L1s (no movement); Dead (L4): worms are dead, but at a later larval stage; majority of worms are L1 (based on size); majority of worms are L2 (based on size); majority of worms are L3 (based on size); majority of worms are L4 (based on size); AD: majority of worms are adult; #AD: 5 adult worms or less; B!: sterile (0-25 progeny); B: low broodsize (25-100 progeny); ˜B: moderate broodsize (100-250 progeny); <: reduced broodsize (250-500 progeny); OK: no effect (˜1000+ progeny); settings: day 5, Table 3; for 5 Day Visual Score V6: 0.3 μM (procedure of Example 2); for 5 Day Visual Score V5: 0.9 μM (procedure of Example 2); for 5 Day Visual Score V4: 2.6 μM (procedure of Example 2); for 5 Day Visual Score V2: 23.3 μM (procedure of Example 2); for 5 Day Visual Score V1: 70 μM (procedure of Example 2); for 5 Day Visual Score V3: 7.8 μM (procedure of Example 2)
# Experimental: Caenorhabditis elegans adults were grown on Nematode Growth Medium (NGM) until they produced eggs, then the adults were removed.
# The eggs were allowed to hatch, and the L1 larvae collected. See The Neniatode Caenorhabditis elegans (1988) Cold Spring Harbor Laboratory Press. Using a Matrix Programmable Pipette, the L1s were distributed into 96-well tissue culture plates, 20 L1 in 50 μl NGM per well. Antibiotic/Antimyotic was added to each well, and 1% by weight E. coli strain HB101. The subject anthelmintic compounds were stored at 5 mM in 100% DMSO. 0.7 μl of compounds 1-31 were added to the left-most column of wells to yield a final concentration of 70 μM in 1.4% DMSO, with 1.4% DMSO only as the control. The compounds were then subjected to 5 more 3-fold dilutions from left to right to yield 6 column concentrations of 70 μM, 23.3 μM, 7.8 μM, 2.6 μM, 0.9 μM, and 0.3 μM. Plates were stored in air-tight Rubbermaid plastic boxes at 20° C. The nematodes had cleared all control wells by day 4, and nematode viability was scored by visual examination under a 100× dissecting microscope on day 5. A visual viability scoring system was used as follows:
# If several classes of worms exist in a well, then all classes are scored. If adults are present, then the brood score is also recorded. Thus, “L1/L2” would mean a mixture of L1's and L2's are present in the well. “L4/#AD/B” would mean that a mixture of L4's and adults are resent in the well. The “#AD” would mean that there are 6 or less adults, and the “B” would mean that there were 100 progeny or less.
# Column VI has a compound concentration of 70 μM with sequential 3-fold dilutions reported in columns V2, V3, V4, V5, and V6, respectively, such that the V6 concentration was 0.3 μM.
# as §1
Compound,Follow-up HTS Run % Run (Caenorhabditis elegans [1]) [%],Follow-up HTS Run Visual Score (Caenorhabditis elegans [1]),Follow-up HTS Run mOD (Caenorhabditis elegans [1]) [mOD],Initial HTS Run % Run (Caenorhabditis elegans [1]) [%],Initial HTS Run Visual Score (Caenorhabditis elegans [1]),Initial HTS Run mOD (Caenorhabditis elegans [1]) [mOD],5 Day Visual Score V6 (Caenorhabditis elegans [2]),5 Day Visual Score V5 (Caenorhabditis elegans [2]),5 Day Visual Score V4 (Caenorhabditis elegans [2]),5 Day Visual Score V2 (Caenorhabditis elegans [2]),5 Day Visual Score V1 (Caenorhabditis elegans [2]),5 Day Visual Score V3 (Caenorhabditis elegans [2])
Fc1ccc(Oc2cc(NCc3ccc(C(F)(F)F)cc3)ncn2)cc1 [AKC 358],113,L3-Dead L3,153,129,Dead,252,OK (no effect (˜1000+ progeny)),OK (no effect (˜1000+ progeny)),OK (no effect (˜1000+ progeny)),Dead,Dead,–
NS(=O)(=O)c1ccc(NC(=O)CN2CCCC(NC(=O)c3cc4ccccc4o3)C2)cc1 (centres unmarked) [AKC 348],123,–,166,126,Dead,246,B (low broodsize (25-100 progeny)),< (reduced broodsize (250-500 progeny)),–,Dead,Dead,Dead
Clc1cccc(Oc2cc(NCc3ccccc3Cl)ncn2)c1 [AKC 376],115,L2/L3/1AD,155,131,2AD/B,256,OK (no effect (˜1000+ progeny)),OK (no effect (˜1000+ progeny)),OK (no effect (˜1000+ progeny)),OK (no effect (˜1000+ progeny)),L1,OK (no effect (˜1000+ progeny))
CN(c1cc(Oc2ccc(-c3ccccc3)cc2)ncn1)C1CCCCC1 [AKC 363],122,Dead,165,141,Dead,275,OK (no effect (˜1000+ progeny)),OK (no effect (˜1000+ progeny)),OK (no effect (˜1000+ progeny)),< (reduced broodsize (250-500 progeny)),Dead,˜B (moderate broodsize (100-250 progeny))
CCN(C)c1cc(Oc2ccc3ccccc3c2)ncn1 [AKC 350],101,Dead,136,126,Dead,245,OK (no effect (˜1000+ progeny)),OK (no effect (˜1000+ progeny)),OK (no effect (˜1000+ progeny)),L1,L1,–
Fc1ccccc1Oc1cc(NCc2cccc(C(F)(F)F)c2)ncn1 [AKC 381],109,L4/AD/B!,147,138,Dead/1AD/B!,270,OK (no effect (˜1000+ progeny)),OK (no effect (˜1000+ progeny)),OK (no effect (˜1000+ progeny)),˜B (moderate broodsize (100-250 progeny)),L1,< (reduced broodsize (250-500 progeny))
CC(C)(C)OC(=O)N1CCN(c2cc(Oc3ccccc3Cl)ncn2)CC1 [AKC 374],114,–,154,139,L3-Dying,271,OK (no effect (˜1000+ progeny)),OK (no effect (˜1000+ progeny)),OK (no effect (˜1000+ progeny)),–,Dead(L2/L3),OK (no effect (˜1000+ progeny))
FC(F)(F)c1cccc(CNc2cc(Oc3ccc(-c4ccccc4)cc3)ncn2)c1 [AKC 382],118,–,159,141,Dead,275,OK (no effect (˜1000+ progeny)),OK (no effect (˜1000+ progeny)),OK (no effect (˜1000+ progeny)),–,Dead,OK (no effect (˜1000+ progeny))
CCCCCCCCCCCCNc1cc(Oc2ccccc2Cl)ncn1 [AKC 404],124,Dead,168,155,Dead,302,OK (no effect (˜1000+ progeny)),OK (no effect (˜1000+ progeny)),OK (no effect (˜1000+ progeny)),Dead,Dead,OK (no effect (˜1000+ progeny))
NS(=O)(=O)c1cccc(NC(=O)CCN2CCC(c3cccc4[nH]ccc34)CC2)c1 [AKC 377],109,L4/AD/B!-No P,147,113,3AD/B,220,OK (no effect (˜1000+ progeny)),OK (no effect (˜1000+ progeny)),OK (no effect (˜1000+ progeny)),–,L1,OK (no effect (˜1000+ progeny))
FC(F)(F)c1cccc(CNc2cc(Oc3cccc(Cl)c3)ncn2)c1 [AKC 379],107,L4/AD/B!,144,142,Dead/1AD,277,OK (no effect (˜1000+ progeny)),OK (no effect (˜1000+ progeny)),OK (no effect (˜1000+ progeny)),–,Dead,OK (no effect (˜1000+ progeny))
FC(F)(F)c1cccc(CNc2cc(Oc3ccccc3Cl)ncn2)c1 [AKC 383],110,L4/AD/B!,149,132,5AD/B,257,OK (no effect (˜1000+ progeny)),OK (no effect (˜1000+ progeny)),OK (no effect (˜1000+ progeny)),˜B (moderate broodsize (100-250 progeny)),L1,OK (no effect (˜1000+ progeny))
